From ChEMBL document CHEMBL1201862, “PubChem BioAssay data set” (2004)
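Dose response: 5 concentrations. Exposure: 48 h. Format: 96-well plates. Endpoint: linear interpolation; highest concentration if not reached. Abbreviation: GI50, concentration required for 50% inhibition of growth.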 The source made the active and inactive calls. Rule as the data show it: active = GI50 up to about 1.1 µM and inactive = higher.

Columns and labels:
Experiment in all cases: growth of human tumour cells (NCI), 48 h
[1] = test system: MDA-MB-231
[2] = test system: CAKI-1
[3] = test system: MOLT-4
[4] = test system: COLO 205
[5] = test system: T47D
[6] = test system: OVCAR-3
[7] = test system: SW-620
[8] = test system: ACHN
[9] = test system: DU-145
[10] = test system: NCI-H23
[11] = test system: OVCAR-8
[12] = test system: BT-549
[13] = test system: SK-OV-3
[14] = test system: NCI-H522
[15] = test system: NCI/ADR-RES
[16] = test system: SK-MEL-28
[17] = test system: NCI-H226
[18] = test system: UO-31
[19] = test system: HOP-62
[20] = test system: RPMI-8226

Structure (SMILES) | GI50 [1] | GI50 [2] | GI50 [3] | GI50 [4] | GI50 [5] | GI50 [6] | GI50 [7] | GI50 [8] | GI50 [9] | GI50 [10] | GI50 [11] | GI50 [12] | GI50 [13] | GI50 [14] | GI50 [15] | GI50 [16] | GI50 [17] | GI50 [18] | GI50 [19] | GI50 [20]
C/N=C1\OC2=C3C(c4ccccc4)(O/C(=N/C)N(C)C3(c3ccccc3)OC2=O)N1C (centres undefined) | > 100 µM (inactive) | > 100 µM (inactive) | > 100 µM (inactive) | > 100 µM (inactive) | > 100 µM (inactive) | > 100 µM (inactive) | > 100 µM (inactive) | > 100 µM (inactive) | > 100 µM (inactive) | > 100 µM (inactive) | > 100 µM (inactive) | > 100 µM (inactive) | > 100 µM (inactive) | > 100 µM (inactive) | > 100 µM (inactive) | > 100 µM (inactive) | > 100 µM (inactive) | > 10 µM (inactive) | > 100 µM (inactive) | –
C[C@@H](NC(=O)[C@@H]1C[C@]1(C)CO)c1cccc2ccccc12 | > 100 µM (inactive) | > 100 µM (inactive) | > 100 µM (inactive) | > 100 µM (inactive) | > 100 µM (inactive) | > 100 µM (inactive) | > 100 µM (inactive) | > 100 µM (inactive) | > 100 µM (inactive) | > 100 µM (inactive) | > 100 µM (inactive) | > 100 µM (inactive) | > 100 µM (inactive) | – | > 100 µM (inactive) | > 100 µM (inactive) | > 100 µM (inactive) | > 100 µM (inactive) | > 100 µM (inactive) | > 100 µM (inactive)
O=c1oc2cc(O)ccc2cc1-c1nc2ccccc2s1 | 23.7 µM (inactive) | 22.9 µM (inactive) | 0.678 µM (active) | 0.109 µM (active) | 31.3 µM (inactive) | 16.3 µM (inactive) | 12.2 µM (inactive) | 22.5 µM (inactive) | 29.2 µM (inactive) | 21.1 µM (inactive) | 34.7 µM (inactive) | 16.9 µM (inactive) | 38.8 µM (inactive) | – | 18.7 µM (inactive) | 0.0656 µM (active) | – | 16.4 µM (inactive) | 20.9 µM (inactive) | 11.5 µM (inactive)
Cc1cc(SCC(=O)c2ccccc2)nc2ccccc12 | > 100 µM (inactive) | > 100 µM (inactive) | > 100 µM (inactive) | > 100 µM (inactive) | > 100 µM (inactive) | 41.2 µM (inactive) | > 100 µM (inactive) | > 100 µM (inactive) | > 100 µM (inactive) | > 100 µM (inactive) | > 100 µM (inactive) | > 100 µM (inactive) | – | 53.7 µM (inactive) | > 100 µM (inactive) | > 100 µM (inactive) | > 100 µM (inactive) | 73.5 µM (inactive) | 88.9 µM (inactive) | > 100 µM (inactive)
O=C1CC(c2ccccc2Cl)C2(C(=O)NC(=S)NC2=O)C(c2ccccc2Cl)C1 (centres undefined) | 27.2 µM (inactive) | – | 54.7 µM (inactive) | 31.3 µM (inactive) | 45.6 µM (inactive) | 26.5 µM (inactive) | 35.7 µM (inactive) | 24.8 µM (inactive) | 34 µM (inactive) | 16.7 µM (inactive) | 23 µM (inactive) | 30.3 µM (inactive) | 43 µM (inactive) | 34.1 µM (inactive) | 68.5 µM (inactive) | 49 µM (inactive) | 28.6 µM (inactive) | 46.5 µM (inactive) | 34.2 µM (inactive) | 34.1 µM (inactive)
COc1ccc(OC)c2sc(N3C(=O)/C(=C/Cc4ccco4)N=C3c3ccccc3)nc12 | > 100 µM (inactive) | 81.1 µM (inactive) | 17.9 µM (inactive) | 50.5 µM (inactive) | 26 µM (inactive) | 31.4 µM (inactive) | 32.5 µM (inactive) | 26.7 µM (inactive) | 32.4 µM (inactive) | – | 33.5 µM (inactive) | 50.2 µM (inactive) | 83.4 µM (inactive) | – | 63.1 µM (inactive) | 79.1 µM (inactive) | – | 30.9 µM (inactive) | 43 µM (inactive) | 15.5 µM (inactive)
CN1c2ccccc2S(=O)(=O)n2c(COc3ccccc3)nnc21 | > 100 µM (inactive) | > 100 µM (inactive) | > 100 µM (inactive) | > 100 µM (inactive) | > 100 µM (inactive) | > 100 µM (inactive) | > 100 µM (inactive) | > 100 µM (inactive) | > 100 µM (inactive) | > 100 µM (inactive) | > 100 µM (inactive) | 64.4 µM (inactive) | > 100 µM (inactive) | 56.8 µM (inactive) | > 100 µM (inactive) | > 100 µM (inactive) | > 100 µM (inactive) | > 100 µM (inactive) | 35.4 µM (inactive) | –
CC1=CC(C)(C)NN1C1=NS(=O)(=O)c2ccccc2N1C | > 100 µM (inactive) | > 100 µM (inactive) | 47.9 µM (inactive) | > 100 µM (inactive) | > 100 µM (inactive) | > 100 µM (inactive) | > 100 µM (inactive) | > 100 µM (inactive) | > 100 µM (inactive) | > 100 µM (inactive) | > 100 µM (inactive) | > 100 µM (inactive) | > 100 µM (inactive) | > 100 µM (inactive) | > 100 µM (inactive) | > 100 µM (inactive) | > 100 µM (inactive) | 78.3 µM (inactive) | > 100 µM (inactive) | –
COC(=O)c1ccc(NCC2=CC(=O)C=CC2=O)cc1O | 16.8 µM (inactive) | 18.6 µM (inactive) | 8.87 µM (inactive) | 13.2 µM (inactive) | 8.43 µM (inactive) | 11.5 µM (inactive) | 24.3 µM (inactive) | 13.8 µM (inactive) | 15.2 µM (inactive) | 17.9 µM (inactive) | 15.5 µM (inactive) | 11.4 µM (inactive) | 20.4 µM (inactive) | 2.11 µM (inactive) | 18.1 µM (inactive) | 46 µM (inactive) | 19.5 µM (inactive) | 12.7 µM (inactive) | 18.1 µM (inactive) | –
CN1C(=O)C(=CNc2ccccc2Cl)C(=O)N(C)C1=O | > 100 µM (inactive) | > 100 µM (inactive) | 22.6 µM (inactive) | > 100 µM (inactive) | 20.1 µM (inactive) | 15.2 µM (inactive) | > 100 µM (inactive) | 24.5 µM (inactive) | – | > 100 µM (inactive) | > 100 µM (inactive) | > 100 µM (inactive) | 40.8 µM (inactive) | > 100 µM (inactive) | > 100 µM (inactive) | – | > 100 µM (inactive) | > 100 µM (inactive) | 19.8 µM (inactive) | 16.9 µM (inactive)
CNC1C(OC2C(OC3C(O)C(O)C(O)C(O)C3O)OC(C)C2(O)CO)OC(CO)C(O)C1O.N=C(N)N.NC(=O)O (centres undefined) | > 100 µM (inactive) | – | > 100 µM (inactive) | > 100 µM (inactive) | > 100 µM (inactive) | > 100 µM (inactive) | > 100 µM (inactive) | > 100 µM (inactive) | > 100 µM (inactive) | > 100 µM (inactive) | > 100 µM (inactive) | > 100 µM (inactive) | > 100 µM (inactive) | > 100 µM (inactive) | > 100 µM (inactive) | > 100 µM (inactive) | > 100 µM (inactive) | > 100 µM (inactive) | > 100 µM (inactive) | > 100 µM (inactive)
C[C@]12CC[C@H]3[C@@H](CCC4=CC(=O)CC[C@@H]43)[C@@H]1CC[C@]2(O)C(N)=O | > 100 µM (inactive) | – | > 100 µM (inactive) | > 100 µM (inactive) | > 100 µM (inactive) | > 100 µM (inactive) | > 100 µM (inactive) | > 100 µM (inactive) | > 100 µM (inactive) | > 100 µM (inactive) | > 100 µM (inactive) | > 100 µM (inactive) | > 100 µM (inactive) | > 100 µM (inactive) | > 100 µM (inactive) | > 100 µM (inactive) | > 100 µM (inactive) | > 100 µM (inactive) | > 100 µM (inactive) | > 100 µM (inactive)
O=C1/C(=C/c2cc3c(=O)c4ccccc4sc3s2)NC(=S)N1c1ccccc1 | 89.9 µM (inactive) | > 100 µM (inactive) | 24.5 µM (inactive) | > 100 µM (inactive) | > 100 µM (inactive) | > 100 µM (inactive) | > 100 µM (inactive) | > 100 µM (inactive) | > 100 µM (inactive) | > 100 µM (inactive) | > 100 µM (inactive) | 51.8 µM (inactive) | – | > 100 µM (inactive) | > 100 µM (inactive) | > 100 µM (inactive) | > 100 µM (inactive) | > 100 µM (inactive) | 5.01 µM (inactive) | > 100 µM (inactive)
Cc1cccc2nc(-c3ccccc3)cc(=O)n12 | > 100 µM (inactive) | – | 63.5 µM (inactive) | > 100 µM (inactive) | 14 µM (inactive) | > 100 µM (inactive) | > 100 µM (inactive) | 43.1 µM (inactive) | > 100 µM (inactive) | > 100 µM (inactive) | 88.3 µM (inactive) | 85.5 µM (inactive) | 82.8 µM (inactive) | 58.9 µM (inactive) | 44.9 µM (inactive) | > 100 µM (inactive) | 30.1 µM (inactive) | – | > 100 µM (inactive) | > 100 µM (inactive)
CCN(CCN(CC)C(=O)Nc1ccccc1)C(=O)Nc1ccccc1 | > 100 µM (inactive) | – | > 100 µM (inactive) | > 100 µM (inactive) | > 100 µM (inactive) | – | > 100 µM (inactive) | > 100 µM (inactive) | > 100 µM (inactive) | > 100 µM (inactive) | > 100 µM (inactive) | > 100 µM (inactive) | > 100 µM (inactive) | > 100 µM (inactive) | > 100 µM (inactive) | > 100 µM (inactive) | > 100 µM (inactive) | > 100 µM (inactive) | > 100 µM (inactive) | > 100 µM (inactive)
